Common to all, as to format: cell-based
Test [1] addresses T1, OATP4C1 (organic anion-transporting polypeptide 4C1) (Homo sapiens, UniProt Q6ZQN7).
T1 construct: gene SLCO4C1; stably expressed in MDCKII cells (G418), butyrate-induced
T1 sequence (Q6ZQN7 1-724): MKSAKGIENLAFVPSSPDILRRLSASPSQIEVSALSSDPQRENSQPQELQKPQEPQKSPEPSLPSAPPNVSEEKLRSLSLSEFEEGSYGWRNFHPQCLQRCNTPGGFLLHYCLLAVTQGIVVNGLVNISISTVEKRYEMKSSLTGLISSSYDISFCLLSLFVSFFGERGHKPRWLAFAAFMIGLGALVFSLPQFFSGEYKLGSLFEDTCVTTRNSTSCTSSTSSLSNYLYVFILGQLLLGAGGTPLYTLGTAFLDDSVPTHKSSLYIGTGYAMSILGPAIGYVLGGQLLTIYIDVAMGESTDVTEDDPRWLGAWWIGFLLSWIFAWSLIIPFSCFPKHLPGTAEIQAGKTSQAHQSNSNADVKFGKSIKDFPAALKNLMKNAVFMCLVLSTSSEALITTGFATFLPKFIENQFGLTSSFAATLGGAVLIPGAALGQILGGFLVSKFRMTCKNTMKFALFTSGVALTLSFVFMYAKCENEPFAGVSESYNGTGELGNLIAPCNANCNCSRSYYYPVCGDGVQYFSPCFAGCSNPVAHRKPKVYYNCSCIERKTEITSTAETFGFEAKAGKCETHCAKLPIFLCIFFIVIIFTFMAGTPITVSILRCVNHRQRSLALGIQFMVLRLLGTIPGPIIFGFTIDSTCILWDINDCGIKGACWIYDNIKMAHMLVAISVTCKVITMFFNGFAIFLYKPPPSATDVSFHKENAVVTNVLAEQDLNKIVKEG
As to the kind of experiment: inhibition of T3 uptake in OATP4C1/MDCKII cells; Ki calculated from IC50 as IC50/([…]+[S]/Km).

The target of test [2] is T1, OATP4C1 (organic anion-transporting polypeptide 4C1). As to the kind of experiment: inhibition of T3 uptake in OATP4C1/MDCKII cells, LC/MS/MS, mock subtracted. An excerpt:
inhibition of T3 uptake in OATP4C1/MDCKII cells, LC/MS/MS, mock subtracted on OATP4C1 (organic anion-transporting polypeptide 4C1)

Test [3] has the same target. The test is described as above. The note with it: MDCK-II.

Among the data in publication PMC9369231, “Bile Acid–Drug Interaction via Organic Anion-Transporting Polypeptide 4C1 Is a Potential Mechanism of Altered Pharmacokinetics of Renally Excreted Drugs” (International Journal of Molecular Sciences, 2022) are Ki, IC50 and inhibition values, retold here.

A word on the Ki: it is the equilibrium dissociation constant of an inhibitor or competing ligand from its target. Broadly, the IC50 is the concentration at which inhibition is half-maximal. A lower IC50 goes with higher potency. By inhibition is commonly meant the drop in the measured response relative to a control, in per cent. Higher therefore signals a strong effect.

As for `C[C@H](CCC(=O)NCC(=O)O)[C@H]1CC[C@H]2[C@@H]3CC[C@@H]4C[C@H](O)CC[C@]4(C)[C@H]3CC[C@]12C` [GLCA], in test [1], the Ki is 8.46 ± 0.406 µM. Moreover, the IC50 in test [2] amounted to 9.9 ± 0.475 µM. For `C[C@H](CCC(=O)O)[C@H]1CC[C@H]2[C@@H]3CC[C@@H]4C[C@H](O)CC[C@]4(C)[C@H]3CC[C@]12C` [LCA] the same measures were 5.23 ± 1.03 µM and 6.12 ± 1.21 µM. Regarding `C[C@H](CCC(=O)NCCS(=O)(=O)O)[C@H]1CC[C@H]2[C@@H]3CC[C@@H]4C[C@H](O)CC[C@]4(C)[C@H]3CC[C@]12C` [TLCA], in test [1], the Ki was 10.5 ± 0.762 µM. Besides, the IC50 in test [2] stood at 12.3 ± 0.891 µM. `C[C@H](CCC(=O)NCCS(=O)(=O)O)[C@H]1CC[C@H]2[C@@H]3CC[C@@H]4C[C@H](OS(=O)(=O)O)CC[C@]4(C)[C@H]3C[C@H](O)[C@]12C` [TDCA-3S] displayed an inhibition at 50 µM in test [3] of 49.1%.
